Data from patent US20230271950A1, “ANTIBACTERIAL PICOLINAMIDE COMPOUNDS” (University of Notre Dame Du Lac, priority 2020, published 2023).
Read-outs that look alike come from different tables or passages of the source.

Key:
Bacteroides fragilis = experiment: MIC against gut bacterium Bacteroides fragilis; assay type: cell-based; conditions: Bacteroides fragilis, Bacteroides fragilis strain HM-709, read-out: MIC
E. faecium NCTC7171 = experiment: MIC against E. faecium; assay type: cell-based, Enterococcus faecium; conditions: Enterococcus faecium
Bifidobacterium longum = experiment: MIC against gut bacterium Bifidobacterium longum; assay type: cell-based; conditions: Bifidobacterium longum, Bifidobacterium longum strain HM-846, read-out: MIC
Lactobacillus reuteri = experiment: MIC against gut bacterium Lactobacillus reuteri; assay type: cell-based
C. difficile = experiment: MIC by broth microdilution against C. difficile strains; assay type: cell-based, Clostridioides difficile

In the case of `O=C(O)c1ccc2oc(NC(=O)c3cc(Oc4cccc(OC(F)(F)F)c4)ccn3)nc2c1` [Compound 1, Sodium 2-(4-(3-(trifluoromethoxy)phenoxy)picolinamido)benzo[d]oxazole-5-carboxylate], the MIC (Bacteroides fragilis; Table 1) was 2 µg/mL, the MIC (Bacteroides fragilis; Table 7) was 4 µg/mL and the MIC (E. faecium NCTC7171; NCTC7171, E. faecium NCTC 7171, Table 10, unit inferred, read-out: Activity (MIC) against E. faecium) was ≥ 128 µg/mL. The MIC (E. faecium NCTC7171; E. faecium NCTC7171, Table 1, read-out: MIC) was > 128 µg/mL, the MIC (Bifidobacterium longum; Table 1) was 16 µg/mL and the MIC (Bifidobacterium longum; Table 7) was 16 µg/mL. The MIC (Lactobacillus reuteri; Lactobacillus reuteri strain HM-102, Table 7) was 4 µg/mL, the MIC (Lactobacillus reuteri; Limosilactobacillus reuteri, Lactobacillus reuter strain HM-102, Table 1, read-out: MIC) was 4 µg/mL and the MIC (C. difficile; C. difficile 23691 (VR, vancomycin-resistant), Table 7) was 0.125 µg/mL. It also gave an MIC (C. difficile; C. difficile 23691, Table 9) of 0.125 µg/mL, an MIC (C. difficile; C. difficile 24923 (VR, vancomycin-resistant), Table 7) of 0.125 µg/mL and an MIC (C. difficile; C. difficile 24923, Table 9) of 0.125 µg/mL. The MIC (C. difficile; C. difficile 27081 (FR, fidaxomicin-resistant), Table 7) was 0.125 µg/mL, the MIC (C. difficile; C. difficile 27081, Table 9) was 0.125 µg/mL and the MIC (C. difficile; C. difficile 27173 (MR, metronidazole-resistant), Table 7) was 0.125 µg/mL. For the same compound, the MIC (C. difficile; C. difficile 27173, Table 9) was 0.125 µg/mL, the MIC (C. difficile; C. difficile ATCC43255, Table 7) was 0.125 µg/mL and the MIC (C. difficile; C. difficile ATCC43255, Table 9) was 0.125 µg/mL. The MIC (C. difficile; C. difficile ATCC43598, Table 9) was 0.125 µg/mL, the MIC (C. difficile; C. difficile BAA-1801, Table 9) was 0.125 µg/mL and the MIC (C. difficile; C. difficile BAA-1804, Table 9) was 0.125 µg/mL. For the same compound, the MIC (C. difficile; C. difficile BAA-1812, Table 9) was 0.125 µg/mL, the MIC (C. difficile; C. difficile BAA-1814, Table 9) was 0.125 µg/mL and the MIC (C. difficile; C. difficile BAA-1870, Table 7) was 0.125 µg/mL. For the same compound, the MIC (C. difficile; C. difficile BAA-1870, Table 9) was 0.125 µg/mL, the MIC (C. difficile; C. difficile HM-89, Table 9) was 0.125 µg/mL and the MIC (C. difficile; C. difficile HM-745, Table 9) was 0.125 µg/mL. The MIC (C. difficile; C. difficile HM-746, Table 9) was 0.125 µg/mL, the MIC (C. difficile; C. difficile HM-747, Table 9) was 0.125 µg/mL and the MIC (C. difficile; C. difficile NR49292, Table 7) was 0.125 µg/mL. It also gave an MIC (C. difficile; C. difficile NR49292, Table 9) of 0.125 µg/mL, an MIC (C. difficile; C. difficile NR49310, Table 7) of 0.125 µg/mL and an MIC (C. difficile; C. difficile NR49310, Table 9) of 0.125 µg/mL. It also gave an MIC (C. difficile; C. difficile NR-13427, Table 9) of 0.125 µg/mL, an MIC (C. difficile; C. difficile NR-13428, Table 9) of 0.125 µg/mL and an MIC (C. difficile; C. difficile NR-13430, Table 9) of 0.125 µg/mL. For the same compound, the MIC (C. difficile; C. difficile NR-13434, Table 9) was 0.125 µg/mL, the MIC (C. difficile; C. difficile NR-13435, Table 9) was 0.125 µg/mL and the MIC (C. difficile; C. difficile NR-13436, Table 9) was 0.125 µg/mL. The MIC (C. difficile; C. difficile NR-13437, Table 9) was 0.125 µg/mL, the MIC (C. difficile; C. difficile NR-13438, Table 9) was 0.125 µg/mL and the MIC (C. difficile; C. difficile NR-13553, Table 9) was 0.125 µg/mL. It also gave an MIC (C. difficile; C. difficile NR-32882, Table 9) of 0.125 µg/mL, an MIC (C. difficile; C. difficile NR-32883, Table 9) of 0.125 µg/mL and an MIC (C. difficile; C. difficile NR-32884, Table 9) of 0.125 µg/mL. The MIC (C. difficile; C. difficile NR-32886, Table 9) was 0.125 µg/mL, the MIC (C. difficile; C. difficile NR-32887, Table 9) was 0.125 µg/mL and the MIC (C. difficile; C. difficile NR-32888, Table 9) was 0.125 µg/mL. It also gave an MIC (C. difficile; C. difficile NR-32889, Table 9) of 0.125 µg/mL, an MIC (C. difficile; C. difficile NR-32892, Table 9) of 0.125 µg/mL and an MIC (C. difficile; C. difficile NR-32897, Table 9) of 0.125 µg/mL. The MIC (C. difficile; C. difficile NR-32900, Table 9) was 0.125 µg/mL, the MIC (C. difficile; C. difficile NR-32904, Table 9) was 0.125 µg/mL and the MIC (C. difficile; C. difficile NR-49277, Table 9) was 0.125 µg/mL. For the same compound, the MIC (C. difficile; C. difficile NR-49278, Table 9) was 0.125 µg/mL, the MIC (C. difficile; C. difficile NR-49279, Table 9) was 0.125 µg/mL and the MIC (C. difficile; C. difficile NR-49280, Table 9) was 0.125 µg/mL. For the same compound, the MIC (C. difficile; C. difficile NR-49282, Table 9) was 0.125 µg/mL, the MIC (C. difficile; C. difficile NR-49286, Table 9) was 0.125 µg/mL and the MIC (C. difficile; C. difficile NR-49288, Table 9) was 0.125 µg/mL. For the same compound, the MIC (C. difficile; C. difficile NR-49290, Table 9) was 0.125 µg/mL, the MIC (C. difficile; C. difficile NR-49291, Table 9) was 0.125 µg/mL and the MIC (C. difficile; C. difficile NR-49293, Table 9) was 0.125 µg/mL. The MIC (C. difficile; C. difficile NR-49295, Table 9) was 0.125 µg/mL, the MIC (C. difficile; C. difficile NR-49296, Table 9) was 0.125 µg/mL and the MIC (C. difficile; C. difficile NR-49299, Table 9) was 0.125 µg/mL. It also gave an MIC (C. difficile; C. difficile NR-49300, Table 9) of 0.125 µg/mL, an MIC (C. difficile; C. difficile NR-49301, Table 9) of 0.125 µg/mL and an MIC (C. difficile; C. difficile NR-49303, Table 9) of 0.125 µg/mL. It also gave an MIC (C. difficile; C. difficile NR-49307, Table 9) of 0.125 µg/mL, an MIC (C. difficile; C. difficile NR-49308, Table 9) of 0.125 µg/mL and an MIC (C. difficile; C. difficile NR-49309, Table 9) of 0.125 µg/mL. It also gave an MIC (C. difficile; C. difficile NR-49312, Table 9) of 0.125 µg/mL, an MIC (C. difficile; C. difficile NR-49314, Table 9) of 0.125 µg/mL and an MIC (C. difficile; C. difficile NR-49315, Table 9) of 0.125 µg/mL. It also gave an MIC (C. difficile; C. difficile NR-49316, Table 9) of 0.125 µg/mL, an MIC (C. difficile; C. difficile NR-49317, Table 9) of 0.125 µg/mL and an MIC (C. difficile; C. difficile NR-49319, Table 9) of 0.125 µg/mL. For the same compound, the MIC (C. difficile; C. difficile NR-49320, Table 9) was 0.125 µg/mL.
